Data from the supplement of paper PMC10307832.

What was measured:
Assay in all cases: relative viability (nuclei count vs DMSO), 5 days (fraction); higher = more cells survive
[1] = compound: COc1ccc(-c2ccc3c(N4CCOC[C@@H]4C)nc(N4CCOC[C@@H]4C)nc3n2)cc1CO [AZD8055] + O=C(CCCCCCC(=O)Nc1ccccc1)NO [Vorinostat] (partner 1 µM)
Outline: (§1)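 Lung cancer cell lines in 1536-well plates were dosed by pin tool the day after seeding, either with one drug alone or with a fixed anchor-drug dose plus five library-drug doses (not always all listed) in √10 steps. After 5 days, cells were fixed and their nuclei stained in one step (final 0.05% Triton X-100, 1% formaldehyde, 1 ug/ml Hoechst), then counted on 4× images. Relative viability is the nuclei count in treated wells divided by that in vehicle wells. Values are medians of duplicate plates.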

[2] = compound: COc1ccc(-c2ccc3c(N4CCOC[C@@H]4C)nc(N4CCOC[C@@H]4C)nc3n2)cc1CO [AZD8055] + C[C@]1(O)C[C@@H](c2nc(-c3ccc4ccc(-c5ccccc5)nc4c3)c3c(N)nccn32)C1 [Linsitinib] (partner 1 µM)
Outline: as §1

[3] = compound: COc1ccc(-c2ccc3c(N4CCOC[C@@H]4C)nc(N4CCOC[C@@H]4C)nc3n2)cc1CO [AZD8055] + Cc1nc(NC(=O)N2CCC[C@H]2C(N)=O)sc1-c1ccnc(C(C)(C)C(F)(F)F)c1 [Alpelisib] (partner 2 µM)
Outline: as §1

[4] = compound: COc1ccc(-c2ccc3c(N4CCOC[C@@H]4C)nc(N4CCOC[C@@H]4C)nc3n2)cc1CO [AZD8055] + CC1(C)CCC(c2ccc(Cl)cc2)=C(CN2CCN(c3ccc(C(=O)NS(=O)(=O)c4ccc(N[C@H](CCN5CCOCC5)CSc5ccccc5)c(S(=O)(=O)C(F)(F)F)c4)cc3)CC2)C1 [Navitoclax] (partner 0.5 µM)
Outline: as §1

Cell Line | relative viability ([1]; first compound 0.01 µM) | relative viability ([1]; first compound 0.03162 µM) | relative viability ([1]; first compound 0.1 µM) | relative viability ([1]; first compound 0.3162 µM) | relative viability ([1]; first compound 1 µM) | relative viability ([2]; first compound 0.01 µM) | relative viability ([2]; first compound 0.03162 µM) | relative viability ([2]; first compound 0.1 µM) | relative viability ([2]; first compound 0.3162 µM) | relative viability ([2]; first compound 1 µM) | relative viability ([3]; first compound 0.01 µM) | relative viability ([3]; first compound 0.03162 µM) | relative viability ([3]; first compound 0.1 µM) | relative viability ([3]; first compound 0.3162 µM) | relative viability ([3]; first compound 1 µM) | relative viability ([4]; first compound 0.01 µM) | relative viability ([4]; first compound 0.03162 µM) | relative viability ([4]; first compound 0.1 µM) | relative viability ([4]; first compound 0.3162 µM) | relative viability ([4]; first compound 1 µM)
NCI-H2085 | 0.645 | 0.554 | 0.49 | 0.44 | 0.363 | 0.956 | 0.744 | 0.566 | 0.289 | 0.274 | 0.896 | 0.758 | 0.575 | 0.382 | 0.372 | 1.11 | 0.945 | 0.672 | 0.417 | 0.33
IA-LM | 0.814 | 0.758 | 0.524 | 0.172 | 0.127 | 0.876 | 0.611 | 0.252 | 0.0793 | 0.118 | 0.749 | 0.485 | 0.212 | 0.0977 | 0.0895 | 0.566 | 0.495 | 0.291 | 0.109 | 0.105
H3255 | 0.967 | 0.746 | 0.747 | 0.513 | 0.357 | 0.925 | 0.858 | 0.63 | 0.468 | 0.277 | 0.683 | 0.657 | 0.499 | 0.275 | 0.322 | 0.54 | 0.443 | 0.324 | 0.176 | 0.172
LOU-NH91 | 0.872 | 0.95 | 0.63 | 0.596 | 0.57 | 0.889 | 0.835 | 0.629 | 0.585 | 0.524 | 0.705 | 0.669 | 0.556 | 0.537 | 0.511 | 0.708 | 0.642 | 0.587 | 0.466 | 0.437
NCI-H3122 | 0.809 | 0.999 | 0.877 | 0.442 | 0.338 | 0.995 | 0.823 | 0.547 | 0.384 | 0.299 | 0.737 | 0.541 | 0.34 | 0.309 | 0.251 | 1.13 | 1.05 | 0.687 | 0.435 | 0.348
PC-3 [JPC-3] | 0.849 | 0.902 | 0.631 | 0.534 | 0.495 | 0.992 | 0.972 | 0.882 | 0.673 | 0.461 | 1.17 | 1.06 | 0.972 | 0.555 | 0.47 | 0.83 | 0.847 | 0.775 | 0.575 | 0.421
NCI-H1651 | 0.59 | 0.526 | 0.552 | 0.411 | 0.351 | 0.845 | 0.796 | 0.689 | 0.305 | 0.282 | 1.04 | 0.716 | 0.671 | 0.405 | 0.325 | 1.08 | 0.879 | 0.622 | 0.52 | 0.282
NCI-H2087 | 0.679 | 1.03 | 0.734 | 0.152 | 0.223 | 0.907 | 0.905 | 0.679 | 0.411 | 0.367 | 0.996 | 0.924 | 0.809 | 0.44 | 0.381 | 0.911 | 0.951 | 0.703 | 0.421 | 0.309
